The values that follow come from US12606526B2, “Substituted salicylamide compounds and use thereof” (HELIOS HUAMING BIOPHARMA CO., LTD., priority 2021, dated 2026).

For orientation: IC50 means the concentration at which inhibition is half-maximal. The low end stands for higher potency, the high end for lower potency.

PAD4, sequence (Q9UM07 whole entry): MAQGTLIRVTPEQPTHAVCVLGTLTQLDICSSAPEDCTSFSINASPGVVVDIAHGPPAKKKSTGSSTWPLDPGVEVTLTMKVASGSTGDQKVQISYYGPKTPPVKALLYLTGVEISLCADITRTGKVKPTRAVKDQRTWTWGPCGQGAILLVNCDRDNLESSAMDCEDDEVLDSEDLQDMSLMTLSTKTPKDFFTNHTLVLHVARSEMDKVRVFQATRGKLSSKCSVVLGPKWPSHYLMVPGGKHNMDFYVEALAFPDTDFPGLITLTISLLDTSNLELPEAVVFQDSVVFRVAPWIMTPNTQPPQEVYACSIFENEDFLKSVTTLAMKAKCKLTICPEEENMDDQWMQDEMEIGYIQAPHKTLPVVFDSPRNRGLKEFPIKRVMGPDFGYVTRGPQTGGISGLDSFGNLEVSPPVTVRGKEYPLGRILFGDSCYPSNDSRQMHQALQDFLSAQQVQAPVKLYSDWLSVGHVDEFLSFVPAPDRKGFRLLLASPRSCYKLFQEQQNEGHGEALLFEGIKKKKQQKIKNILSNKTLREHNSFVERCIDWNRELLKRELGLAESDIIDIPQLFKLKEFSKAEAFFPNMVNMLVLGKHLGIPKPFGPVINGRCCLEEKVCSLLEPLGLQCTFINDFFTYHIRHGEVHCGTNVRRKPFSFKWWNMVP

This assay has as its target PAD4 (Homo sapiens, UniProt Q9UM07). The experiment in a line: PAD4 Inhibition Assay (citrulline formation from BAEE). The assay is classed as biochemical. The conditions noted are these: PAD4 75 nM, 60-minute preincubation at 37° C., substrate BAEE, 90 minutes. As for the experimental part: PAD4 was diluted to 75 nM in Assay Buffer (50 mM Tris-HCl, 2 mM CaCl2, 2 mM DTT, 1 mM PMSF in H2O) and added to wells with various concentrations of compound or DMSO vehicle in Eppendorf tubes (final volume was 100 μL). Following a 60-minute preincubation at 37° C., the reaction was initiated by the addition of 10 μL substrate (22 mM BAEE in H2O) at 37° C. The reaction was stopped after 90 minutes by the addition of 25 μL HClO4 (5 M), 125 μL Reagent A (10 g/L diacetyl monoxime and 15 g/L NaCl in H2O) and 250 μL Reagent B (10 mg/mL antipyrine and 1.5 mg/mL FeCl3 diluted in detection buffer containing 25% H2SO4, 25% H3PO4 and 50% H2O) in sequence. This assay was quenched in an ice-bath for 5 minutes after boiling for 30 minutes. The citrulline formation was measured in […] (λ=465 nm) on microplate reader and the IC50 was calculated by GraphPad Prism 5.
Compound `COc1ccc(CNC(=O)[C@H](CCCNC(=N)CF)NC(=O)c2cc(Cl)ccc2OC)cc1` [EX-17, (S)-5-Chloro-N-(5-(2-fluoroacetimidamido)-1-((4-methoxybenzyl)amino)-1-oxopentan-2-yl)-2-methoxybenzamide] showed an IC50 below 500 nM.

As to `COc1ccccc1CNC(=O)[C@H](CCCNC(=N)CF)NC(=O)c1cc(-c2ccccc2)ccc1OC` [EX-13, (S)-N-(5-(2-Fluoroacetimidamido)-1-((2-methoxybenzyl)amino)-1-oxopentan-2-yl)-4-methoxy-[1,1′-biphenyl]-3-carboxamide], the IC50 is below 500 nM.

Take `COc1cccc(Cl)c1C(=O)N[C@@H](CCCNC(=N)CF)C(=O)NCc1ccc(Cl)cc1` [EX-4, (S)-2-Chloro-N-(1-((4-chlorobenzyl)amino)-5-(2-fluoroacetimidamido)-1-oxopentan-2-yl)-6-methoxybenzamide]: the IC50 was in the range of 500 to 10000 nM.

Take `COc1ccc(-c2ccccc2)cc1C(=O)N[C@@H](CCCNC(=N)CF)C(=O)NCc1cccc(Cl)c1` [EX-9, (S)-N-(1-((3-Chlorobenzyl)amino)-5-(2-fluoroacetimidamido)-1-oxopentan-2-yl)-4-methoxy-[1,1′-biphenyl]-3-carboxamide]: the IC50 was in the range of 500 to 10000 nM. Then `COc1cc2c(OC)cccc2cc1C(=O)N[C@@H](CCCNC(=N)CF)C(=O)NCc1ccccc1` [EX-1, (S)-N-(1-(benzylamino)-5-(2-fluoroacetimidamido)-1-oxopentan-2-yl)-3,5-dimethoxy-2-naphthamide], with below 500 nM. As to `COc1ccc(Cl)cc1C(=O)N[C@@H](CCCNC(=N)CF)C(=O)NCc1ccccn1` [EX-18, (S)-5-Chloro-N-(5-(2-fluoroacetimidamido)-1-oxo-1-((pyridin-2-ylmethyl)amino)pentan-2-yl)-2-methoxybenzamide], the IC50 is below 500 nM. As for `COc1cc2c(OC)cccc2cc1C(=O)N[C@@H](CCCNC(=N)CF)C(=O)NCc1ccc(Cl)cc1` [EX-19, (S)-N-(1-((4-Chlorobenzyl)amino)-5-(2-fluoroacetimidamido)-1-oxopentan-2-yl)-3,5-dimethoxy-2-naphthamide], the IC50 was below 500 nM. Then `COc1ccc(-c2cccc(Cl)c2)cc1C(=O)N[C@@H](CCCNC(=N)CF)C(=O)NCc1ccccc1` [EX-11, (S)-N-(1-(Benzylamino)-5-(2-fluoroacetimidamido)-1-oxopentan-2-yl)-3′-chloro-4-methoxy-[1,1′-biphenyl]-3-carboxamide], with 500 to 10000 nM.

For the compound `COc1cc2c(OC)cccc2cc1C(=O)N[C@@H](CCCNC(=N)CF)C(=O)NCc1cccc(NC(=O)CCCNC(=O)CCCC[C@@H]2SC[C@@H]3NC(=O)N[C@@H]32)c1` [EX-24], the IC50 was below 500 nM. On to `COc1ccc(-c2cccc(C)c2)cc1C(=O)N[C@@H](CCCNC(=N)CF)C(=O)NCc1ccccc1` [EX-12, (S)-N-(1-(Benzylamino)-5-(2-fluoroacetimidamido)-1-oxopentan-2-yl)-4-methoxy-3′-methyl-[1,1′-biphenyl]-3-carboxamide], for which the IC50 was below 500 nM. Then `COc1cc2ccccc2cc1C(=O)N[C@@H](CCCNC(=N)CF)C(=O)NCc1ccccc1` [EX-2, (S)-N-(1-(Benzylamino)-5-(2-fluoroacetimidamido)-1-oxopentan-2-yl)-3-methoxy-2-naphthamide], with below 500 nM. For `COc1ccccc1C(=O)N[C@@H](CCCNC(=N)CF)C(=O)NCc1ccc(Cl)cc1` [EX-5, (S)-N-(1-((4-Chlorobenzyl)amino)-5-(2-fluoroacetimidamido)-1-oxopentan-2-yl)-2-methoxybenzamide], the IC50 lay within 500 to 10000 nM. `COc1cc2c(OC)cccc2cc1C(=O)N[C@@H](CCCNC(=N)CF)C(=O)NCc1cccc(F)c1` [EX-21, (S)-N-(5-(2-Fluoroacetimidamido)-1-((3-fluorobenzyl)amino)-1-oxopentan-2-yl)-3,5-dimethoxy-2-naphthamide] yielded an IC50 below 500 nM.

Consider `COc1ccc(-c2ccccc2)cc1C(=O)N[C@@H](CCCNC(=N)CF)C(=O)NCc1ccccc1` [EX-7, (S)-N-(1-(Benzylamino)-5-(2-fluoroacetimidamido)-1-oxopentan-2-yl)-4-methoxy-[1,1′-biphenyl]-3-carboxamide], for which the IC50 is below 500 nM. Then `COc1c(C(=O)N[C@@H](CCCNC(=N)CF)C(=O)NCc2ccccc2)ccc2cc(N(C)C)ccc12` [EX-23, (S)-N-(1-(Benzylamino)-5-(2-fluoroacetimidamido)-1-oxopentan-2-yl)-6-(dimethylamino)-1-methoxy-2-naphthamide], with below 500 nM. Compound `COc1ccc(Cl)cc1C(=O)N[C@@H](CCCNC(=N)CF)C(=O)NCc1ccc(C)cc1` [EX-16, (S)-5-Chloro-N-(5-(2-fluoroacetimidamido)-1-((4-methylbenzyl)amino)-1-oxopentan-2-yl)-2-methoxybenzamide] yielded an IC50 below 500 nM.

For the compound `COc1cccc(OC)c1C(=O)N[C@@H](CCCNC(=N)CF)C(=O)NCc1ccc(Cl)cc1` [EX-3, (S)-N-(1-((4-Chlorobenzyl)amino)-5-(2-fluoroacetimidamido)-1-oxopentan-2-yl)-2,6-dimethoxybenzamide], the IC50 is below 500 nM. As to `COc1ccc(-c2ccccc2)cc1C(=O)N[C@@H](CCCNC(=N)CF)C(=O)NCc1cccc(C)c1` [EX-8, (S)-N-(5-(2-Fluoroacetimidamido)-1-((3-methylbenzyl)amino)-1-oxopentan-2-yl)-4-methoxy-[1,1′-biphenyl]-3-carboxamide], the IC50 lay in the range of 500 to 10000 nM. Then `COc1cc2c(OC)cccc2cc1C(=O)N[C@@H](CCCNC(=N)CF)C(=O)NCc1cccc(Cl)c1` [EX-20, (S)-N-(1-((3-Chlorobenzyl)amino)-5-(2-fluoroacetimidamido)-1-oxopentan-2-yl)-3,5-dimethoxy-2-naphthamide], with below 500 nM; and `COc1ccc(Cl)cc1C(=O)N[C@@H](CCCNC(=N)CF)C(=O)NCc1ccccc1Cl` [EX-15, (S)-5-Chloro-N-(1-((2-chlorobenzyl)amino)-5-(2-fluoroacetimidamido)-1-oxopentan-2-yl)-2-methoxybenzamide], with below 500 nM; and `COc1ccc(-c2ccccc2)cc1C(=O)N[C@@H](CCCNC(=N)CF)C(=O)NCc1ccccn1` [EX-10, (S)-N-(5-(2-Fluoroacetimidamido)-1-oxo-1-((pyridin-2-ylmethyl)amino)pentan-2-yl)-4-methoxy-[1,1′-biphenyl]-3-carboxamide], with below 500 nM. As to `COc1ccc(Cl)cc1C(=O)N[C@@H](CCCNC(=N)CF)C(=O)NCc1ccc(Cl)cc1` [EX-6, (S)-5-Chloro-N-(1-((4-chlorobenzyl)amino)-5-(2-fluoroacetimidamido)-1-oxopentan-2-yl)-2-methoxybenzamide], the IC50 is below 500 nM. Compound `COc1ccc(Cl)cc1C(=O)N[C@@H](CCCNC(=N)CF)C(=O)NCc1cccc(Cl)c1` [EX-14, (S)-5-Chloro-N-(1-((3-chlorobenzyl)amino)-5-(2-fluoroacetimidamido)-1-oxopentan-2-yl)-2-methoxybenzamide] came in with a half-inhibitory concentration (IC50) below 500 nM.

Take `COc1cc2c(OC)cccc2cc1C(=O)N[C@@H](CCCNC(=N)CF)C(=O)NCc1ccc(F)cc1` [EX-22, (S)-N-(5-(2-Fluoroacetimidamido)-1-((4-fluorobenzyl)amino)-1-oxopentan-2-yl)-3,5-dimethoxy-2-naphthamide]: the IC50 was below 500 nM.
